What was measured:
Vero cells = assay: Cytotoxicity, Vero cells, Alamar Blue; assay type: cell-based; settings: 25 μM, 20 hours
Summary of the method: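 Overnight-seeded Vero cells were exposed to 25 μM compound in 2% FBS-DMEM for 20 h at 37 °C, 5% CO2. Alamar Blue was then added for about 6 h. The absorbance ratio relative to compound-free control gave the living-cell ratio.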

HSV-1 protease = molecular target: T1, HSV-1 protease (Human herpesvirus 1, UniProt P10210); assay: Enzymatic assay for HSV-1 protease (assembly) inhibitor, fluorescence polarization; assay type: biochemical; settings: read-out: HSV-1 Enzyme inhibition IC50
T1 construct: 6xHis (N); made in house; host or cells: baculovirus expression system
Summary of the method: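 His6-tagged HSV-1 UL26 protease, baculovirus-expressed, preincubated 30 min at RT with compound in 1 M citrate/phosphate buffer pH 7.4 with 20% glycerol and 2 mM TCEP. A biotin-HTYLQA*SERFRIK-DTAF substrate was then cleaved for 60 min at RT, stopped with avidin, and read by fluorescence polarization versus no-inhibitor control.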

HSV-1 = assay: Antiviral activity, HSV-1 in Vero cells, plaque method; assay type: cell-based; settings: Human alphaherpesvirus 1, 20 hours, 90% inhibition of plaque formation
Summary of the method: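 HSV-1 (50,000 pfu in 2% FBS-DMEM) was added to Vero cells and removed, then the compound was applied in 2% FBS-DMEM for 20 h at 37° C, 5% CO2. After a freeze-thaw, virus yield in the medium was titred by plaque assay. EC90 is the concentration giving 90% plaque reduction versus the compound-free control.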

T1 sequence (P10210 1-247): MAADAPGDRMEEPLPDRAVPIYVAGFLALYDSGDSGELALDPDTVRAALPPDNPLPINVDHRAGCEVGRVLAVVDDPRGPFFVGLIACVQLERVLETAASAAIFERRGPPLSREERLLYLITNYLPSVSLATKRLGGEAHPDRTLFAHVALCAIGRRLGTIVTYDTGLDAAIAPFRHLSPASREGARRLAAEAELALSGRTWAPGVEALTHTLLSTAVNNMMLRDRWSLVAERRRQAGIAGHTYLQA

Question: With Cc1ccccc1C(=O)Nc1ccc2nc(NC(C)(C)C(=O)N(C)CCc3ccccn3)oc(=O)c2c1C [Compound No.156, 2-Methyl-N-(5-methyl-2-{1-methyl-1-[methyl-(2-pyridin-2-yl-ethyl)-carbamoyl]-ethylamino}-4-oxo-4H-benzo[d][1,3]oxazin-6-yl)-benzamide] as the compound, how does the “Cell viability (% of control)” value (Vero cells) read?
Answer: 78.0%

Question: And the IC50 (HSV-1 protease)?
Answer: 3.8 µM

Question: What about the EC90 (HSV-1) of the same compound?
Answer: > 12.5 µM

Question: Which results are given for Cc1ccc(C(=O)Nc2ccc3nc(NC(C)(C)C(=O)N(C)CCc4ccccn4)oc(=O)c3c2C)cc1 [Compound No.158, 4-Methyl-N-(5-methyl-2-{1-methyl-1-[methyl-(2-pyridin-2-yl-ethyl)-carbamoyl]-ethylamino}-4-oxo-4H-benzo[d][1,3]oxazin-6-yl)-benzamide]?
Answer: Cell viability (% of control) (Vero cells): 63.6%; IC50 (HSV-1 protease): 3.3 µM; EC90 (HSV-1): 8.3 µM

Question: For Cc1c(NC(=O)C=Cc2ccccc2)ccc2nc(NC(C)(C)C(=O)N(C)CCc3ccccn3)oc(=O)c12 [Compound No.159, N-(5-Methyl-2-{1-methyl-1-[methyl-(2-pyridin-2-yl-ethyl)-carbamoyl]-ethylamino}-4-oxo-4H-benzo[d][1,3]oxazin-6-yl)-3-phenyl-acrylamide], which “Cell viability (% of control)” value (Vero cells) is on record?
Answer: 15.9%

Question: What about the IC50 (HSV-1 protease) of the same compound?
Answer: 1.4 µM

Question: And the EC90 (HSV-1)?
Answer: 10.8 µM

Question: With Cc1c(NC(=O)CCC2CCCCC2)ccc2nc(NC(C)(C)C(=O)N(C)CCc3ccccn3)oc(=O)c12 [Compound No.160, 2-[6-(3-Cyclohexyl-propionylamino)-5-methyl-4-oxo-4H-benzo[d][1,3]oxazin-2-ylamino]-2,N-dimethyl-N-(2-pyridin-2-yl-ethyl)-propionamide] as the compound, how does the “Cell viability (% of control)” value (Vero cells) read?
Answer: 13.0%

Question: What about the IC50 (HSV-1 protease) of the same compound?
Answer: 1.1 µM

Question: And the EC90 (HSV-1)?
Answer: 11.3 µM

Question: How did the “Cell viability (% of control)” value (Vero cells) turn out when COc1ccccc1C(=O)Nc1ccc2nc(NC(C)(C)C(=O)N(C)CCc3ccccn3)oc(=O)c2c1C [Compound No.161, 2-Methoxy-N-(5-methyl-2-{1-methyl-1-[methyl-(2-pyridin-2-yl-ethyl)-carbamoyl]-ethylamino}-4-oxo-4H-benzo[d][1,3]oxazin-6-yl)-benzamide] was run?
Answer: 44.1%

Question: What about the IC50 (HSV-1 protease) of the same compound?
Answer: 2.8 µM

Question: What about the EC90 (HSV-1) of the same compound?
Answer: 11.4 µM

Question: COc1cccc(C(=O)Nc2ccc3nc(NC(C)(C)C(=O)N(C)CCc4ccccn4)oc(=O)c3c2C)c1 [Compound No.162, 3-Methoxy-N-(5-methyl-2-{1-methyl-1-[methyl-(2-pyridin-2-yl-ethyl)-carbamoyl]-ethylamino}-4-oxo-4H-benzo[d][1,3]oxazin-6-yl)-benzamide] was tested. Which “Cell viability (% of control)” value (Vero cells) did it give?
Answer: 75.5%

Question: And the IC50 (HSV-1 protease)?
Answer: 1.8 µM

Question: And the EC90 (HSV-1)?
Answer: 10.2 µM

Question: For COc1ccc(C(=O)Nc2ccc3nc(NC(C)(C)C(=O)N(C)CCc4ccccn4)oc(=O)c3c2C)cc1 [Compound No.163, 4-Methoxy-N-(5-methyl-2-{1-methyl-1-[methyl-(2-pyridin-2-yl-ethyl)-carbamoyl]-ethylamino}-4-oxo-4H-benzo[d][1,3]oxazin-6-yl)-benzamide], which “Cell viability (% of control)” value (Vero cells) is on record?
Answer: 66.0%

Question: What about the IC50 (HSV-1 protease) of the same compound?
Answer: 1.3 µM

Question: What about the EC90 (HSV-1) of the same compound?
Answer: 10.7 µM

Question: How did the “Cell viability (% of control)” value (Vero cells) turn out when CCOc1ccc(C(=O)Nc2ccc3nc(NC(C)(C)C(=O)N(C)CCc4ccccn4)oc(=O)c3c2C)cc1 [Compound No.164, 4-Ethoxy-N-(5-methyl-2-{1-methyl-1-[methyl-(2-pyridin-2-yl-ethyl)-carbamoyl]-ethylamino}-4-oxo-4H-benzo[d][1,3]oxazin-6-yl)-benzamide] was run?
Answer: 47.7%

Question: What about the IC50 (HSV-1 protease) of the same compound?
Answer: 1.4 µM

Question: And the EC90 (HSV-1)?
Answer: 6.2 µM

Question: How did the “Cell viability (% of control)” value (Vero cells) turn out when CCCCOc1ccc(C(=O)Nc2ccc3nc(NC(C)(C)C(=O)N(C)CCc4ccccn4)oc(=O)c3c2C)cc1 [Compound No.165, 4-Butoxy-N-(5-methyl-2-{1-methyl-1-[methyl-(2-pyridin-2-yl-ethyl)-carbamoyl]-ethylamino}-4-oxo-4H-benzo[d][1,3]oxazin-6-yl)-benzamide] was run?
Answer: 16.9%

Question: And the IC50 (HSV-1 protease)?
Answer: 2 µM

Question: And the EC90 (HSV-1)?
Answer: 3.6 µM

Question: For CCCc1ccc(C(=O)Nc2ccc3nc(NC(C)(C)C(=O)N(C)CCc4ccccn4)oc(=O)c3c2C)cc1 [Compound No.166, N-(5-Methyl-2-{1-methyl-1-[methyl-(2-pyridin-2-yl-ethyl)-carbamoyl]-ethylamino}-4-oxo-4H-benzo[d][1,3]oxazin-6-yl)-4-propyl-benzamide], which “Cell viability (% of control)” value (Vero cells) is on record?
Answer: 15.9%

Question: And the IC50 (HSV-1 protease)?
Answer: 1.2 µM

Question: And the EC90 (HSV-1)?
Answer: 5.8 µM

Question: With CCCCc1ccc(C(=O)Nc2ccc3nc(NC(C)(C)C(=O)N(C)CCc4ccccn4)oc(=O)c3c2C)cc1 [Compound No.167, 4-Butyl-N-(5-methyl-2-{1-methyl-1-[methyl-(2-pyridin-2-yl-ethyl)-carbamoyl]-ethylamino}-4-oxo-4H-benzo[d][1,3]oxazin-6-yl)-benzamide] as the compound, how does the “Cell viability (% of control)” value (Vero cells) read?
Answer: −6.1%

Question: What about the IC50 (HSV-1 protease) of the same compound?
Answer: 1.7 µM

Question: And the EC90 (HSV-1)?
Answer: 3.6 µM

Question: With Cc1c(NC(=O)c2ccc(C(C)(C)C)cc2)ccc2nc(NC(C)(C)C(=O)N(C)CCc3ccccn3)oc(=O)c12 [Compound No.168, 4-tert-Butyl-N-(5-methyl-2-{1-methyl-1-[methyl-(2-pyridin-2-yl-ethyl)-carbamoyl]-ethylamino}-4-oxo-4H-benzo[d][1,3]oxazin-6-yl)-benzamide] as the compound, how does the “Cell viability (% of control)” value (Vero cells) read?
Answer: 16.8%

Question: What about the IC50 (HSV-1 protease) of the same compound?
Answer: 1.3 µM

Question: And the EC90 (HSV-1)?
Answer: 3.6 µM

Question: Which “Cell viability (% of control)” value (Vero cells) does the source give for Cc1c(NC(=O)c2ccc(-c3ccccc3)cc2)ccc2nc(NC(C)(C)C(=O)N(C)CCc3ccccn3)oc(=O)c12 [Compound No.169, Biphenylyl-4-carboxylic acid (5-methyl-2-{1-methyl-1-[methyl-(2-pyridin-2-yl-ethyl)-carbamoyl]-ethylamino}-4-oxo-4H-benzo[d][1,3]oxazin-6-yl)-amide] here?
Answer: 7.0%

Question: And the IC50 (HSV-1 protease)?
Answer: 1 µM

Question: What about the EC90 (HSV-1) of the same compound?
Answer: 5.7 µM

Question: How did the “Cell viability (% of control)” value (Vero cells) turn out when Cc1c(NC(=O)c2cccc(CCl)c2)ccc2nc(NC(C)(C)C(=O)N(C)CCc3ccccn3)oc(=O)c12 [Compound No.170, 3-Chloromethyl-N-(5-methyl-2-{1-methyl-1-[methyl-(2-pyridin-2-yl-ethyl)-carbamoyl]-ethylamino}-4-oxo-4H-benzo [d][1,3]oxazin-6-yl)-benzamide] was run?
Answer: 13.6%

Question: And the IC50 (HSV-1 protease)?
Answer: 1.5 µM

Question: What about the EC90 (HSV-1) of the same compound?
Answer: 7.8 µM

Question: Which “Cell viability (% of control)” value (Vero cells) does the source give for Cc1c(NC(=O)c2ccc(CCl)cc2)ccc2nc(NC(C)(C)C(=O)N(C)CCc3ccccn3)oc(=O)c12 [Compound No.171, 4-Chloromethyl-N-(5-methyl-2-{1-methyl-1-[methyl-(2-pyridin-2-yl-ethyl)-carbamoyl]-ethylamino}-4-oxo-4H-benzo[d][1,3]oxazin-6-yl)-benzamide] here?
Answer: 16.1%

Question: And the IC50 (HSV-1 protease)?
Answer: 2.1 µM

Question: What about the EC90 (HSV-1) of the same compound?
Answer: 10.2 µM

Question: Which “Cell viability (% of control)” value (Vero cells) does the source give for Cc1c(NC(=O)c2cccc(OC(F)(F)F)c2)ccc2nc(NC(C)(C)C(=O)N(C)CCc3ccccn3)oc(=O)c12 [Compound No.172, N-(5-Methyl-2-{1-methyl-1-[methyl-(2-pyridin-2-yl-ethyl)-carbamoyl]-ethylamino}-4-oxo-4H-benzo[d][1,3]oxazin-6-yl)-3-trifluoromethoxy-benzamide] here?
Answer: 17.4%

Question: And the IC50 (HSV-1 protease)?
Answer: 1.2 µM

Question: What about the EC90 (HSV-1) of the same compound?
Answer: 9 µM

Question: Cc1c(NC(=O)c2ccc(OC(F)(F)F)cc2)ccc2nc(NC(C)(C)C(=O)N(C)CCc3ccccn3)oc(=O)c12 [Compound No.173, N-(5-Methyl-2-{1-methyl-1-[methyl-(2-pyridin-2-yl-ethyl)-carbamoyl]-ethylamino}-4-oxo-4H-benzo[d][1,3]oxazin-6-yl)-4-trifluoromethoxy-benzamide] was tested. Which “Cell viability (% of control)” value (Vero cells) did it give?
Answer: 26.1%

Question: What about the IC50 (HSV-1 protease) of the same compound?
Answer: 1.4 µM

Question: And the EC90 (HSV-1)?
Answer: 7.1 µM

Question: Which “Cell viability (% of control)” value (Vero cells) does the source give for Cc1oc(C(C)(C)C)cc1C(=O)Nc1ccc2nc(NC(C)(C)C(=O)N(C)CCc3ccccn3)oc(=O)c2c1C [Compound No.174, 5-tert-Butyl-2-methyl-furan-3-carboxylic acid (5-methyl-2-{1-methyl-1-[methyl-(2-pyridin-2-yl-ethyl)-carbamoyl]-ethylamino}-4-oxo-4H-benzo[d][1,3]oxazin-6-yl)-amide] here?
Answer: 30.1%

Question: What about the IC50 (HSV-1 protease) of the same compound?
Answer: 9.3 µM

Question: What about the EC90 (HSV-1) of the same compound?
Answer: > 12.5 µM

Question: What does the source list for Cc1cc(C(=O)Nc2ccc3nc(NC(C)(C)C(=O)N(C)CCc4ccccn4)oc(=O)c3c2C)c(C(F)(F)F)o1 [Compound No.175, 5-Methyl-2-trifluoromethyl-furan-3-carboxylic acid (5-methyl-2-{1-methyl-1-[methyl-(2-pyridin-2-yl-ethyl)-carbamoyl]-ethylamino}-4-oxo-4H-benzo [d][1,3]oxazin-6-yl)-amide]?
Answer: Cell viability (% of control) (Vero cells): 99.4%; IC50 (HSV-1 protease): 2.5 µM; EC90 (HSV-1): > 12.5 µM

Question: How did the “Cell viability (% of control)” value (Vero cells) turn out when Cc1cc(C(=O)Nc2ccc3nc(NC(C)(C)C(=O)N(C)CCc4ccccn4)oc(=O)c3c2C)c(C)o1 [Compound No.176, 2,5-Dimethyl-furan-3-carboxylic acid (5-methyl-2-{1-methyl-1-[methyl-(2-pyridin-2-yl-ethyl)-carbamoyl]-ethylamino}-4-oxo-4H-benzo[d][1,3]oxazin-6-yl)-amide] was run?
Answer: 93.3%

Question: And the IC50 (HSV-1 protease)?
Answer: 1.9 µM

Question: And the EC90 (HSV-1)?
Answer: > 12.5 µM

Question: Cc1c(NC(=O)c2ccc([N+](=O)[O-])o2)ccc2nc(NC(C)(C)C(=O)N(C)CCc3ccccn3)oc(=O)c12 [Compound No.177, 5-Nitro-furan-2-carboxylic acid (5-methyl-2-{1-methyl-1-[methyl-(2-pyridin-2-yl-ethyl)-carbamoyl]-ethylamino}-4-oxo-4H-benzo[d][1,3]oxazin-6-yl)-amide] was tested. Which “Cell viability (% of control)” value (Vero cells) did it give?
Answer: 38.0%

Question: And the IC50 (HSV-1 protease)?
Answer: 6 µM

Question: And the EC90 (HSV-1)?
Answer: > 12.5 µM
